Assay results as given in patent US20070249555A1, “Use of Atp Analogues for Treatment of Cardiovascular Diseases” (INSTITUT NATIONAL DE LA SANTE ET DE LA RECHERCHE MEDICALE …, priority 2004, published 2007).

Columns and labels:
human P2Y13 receptor [1] = target: T1, human P2Y13 receptor (Homo sapiens, UniProt Q9BPV8); test: forskolin-induced cAMP formation in hP2Y13-CHO-K1 cells; format: cell-based; details: forskolin 3 μM; for maximal inhibition (decrease) of forskolin-induced cAMP accumulation / IC50: hP2Y13-CHO-K1 cells, 12 min; for IC50: read-out: IC50 for inhibition of forskolin-induced cAMP accumulation
T1 construct: expressed in transfected cells
T1 sequence (Q9BPV8 22-354 limits assumed): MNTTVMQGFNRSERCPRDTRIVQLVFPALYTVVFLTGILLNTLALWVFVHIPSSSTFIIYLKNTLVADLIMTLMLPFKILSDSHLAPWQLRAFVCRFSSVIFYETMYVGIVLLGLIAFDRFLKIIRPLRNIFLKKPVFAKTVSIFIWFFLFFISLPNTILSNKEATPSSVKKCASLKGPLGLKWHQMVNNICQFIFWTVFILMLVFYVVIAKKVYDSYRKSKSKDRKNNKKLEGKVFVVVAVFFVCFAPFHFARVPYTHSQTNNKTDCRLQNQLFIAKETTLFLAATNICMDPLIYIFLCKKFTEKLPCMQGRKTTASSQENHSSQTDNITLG
Protocol: The cells were incubated with various concentrations of these agents for 12 min as described in “Materials and Methods”. Data are expressed in % on the value with forskolin alone and presented as mean ±S.D. of triplicates in one representative experiment out of 4.
AR-C69931MX and ADP (at increasing concentrations) were added simultaneously with forskolin to hP2Y13-CHO-K1 cells for a 12 min incubation period. Data are expressed in % of the value with forskolin alone and presented as mean ±S.D. of triplicates in one representative experiment out of 2. (▴): ADP without AR-C69931MW; (●): ADP+AR-C69931MX (100 nM).
The cyclic AMP assays was performed on CHO-K1 cell lines expressing recombinant P2Y receptors as follows.
The CHO-K1 cell line stably expressing the human P2Y13 receptor has been previously described (Communi et al., J Biol Chem, 2001, 276: 41479-85). The plasmid of human P2Y12 receptor (hP2Y12-pEFIN5) was obtained from Euroscreen (Gosselies, Belgium) and was stably transfected into CHO-K1 cells by using the FuGENETM6 transfection reagent (Roche Applied Science, Mannheim, Germany). Transfected cells were selected using G418 (400 μg/ml). The hP2Y13-CHO-K1 and HP2Y12-CHO-K1 cells were grown in Ham'S F12 cell culture medium (Invitrogen-France) supplemented with fetal bovine serum (10%, v/v), penicillin (100 units/ml), streptomycin (100 μg/ml) and G418 (400 μg/ml).
The stably transfected CHO-K1 cells (200,000 cells/dish) were seeded on 35-mm diameter cell culture dishes in complete medium one day before the experiment. Cells were incubated for 2 hours in Krebs-Ringer-Hepes (KRH) buffer (124 mM NaCl, 5 mM KCl, 1.25 mM MgSO4, 1.45 mM CaCl2, 1.25 mM KH2PO4, 25 mM HEPES, pH 7.4, and 8 mM D-glucose) containing 25 μM Rolipram. Nucleotides were then added in presence of 3 μM forskolin, usually for a 12 min incubation (37° C.). The reactions were stopped by aspiration of the incubation medium and addition of 1 ml of 0.1 M HCl. The lysates were then vacuum dried and re-suspended in an appropriate volume of water. Cyclic AMP was quantified by 125l radioimmunoassay, as described in Communi et al., J Biol Chem, 2001, 276: 41479-85.

human P2Y13 receptor [2] = target: T2, human P2Y13 receptor (Homo sapiens, UniProt Q9BPV8); test: TG-HDL2 internalization by HepG2 cells after P2Y13 receptor silencing by siRNA; format: cell-based; details: HepG2, P2Y13 siRNA 100 nM, 48 h; apoA-I 10 μg/ml, ADP 100 nM, AR-C69931MX 100 nM
T2 construct: host or cells: HepG2
T2 sequence (Q9BPV8 1-354): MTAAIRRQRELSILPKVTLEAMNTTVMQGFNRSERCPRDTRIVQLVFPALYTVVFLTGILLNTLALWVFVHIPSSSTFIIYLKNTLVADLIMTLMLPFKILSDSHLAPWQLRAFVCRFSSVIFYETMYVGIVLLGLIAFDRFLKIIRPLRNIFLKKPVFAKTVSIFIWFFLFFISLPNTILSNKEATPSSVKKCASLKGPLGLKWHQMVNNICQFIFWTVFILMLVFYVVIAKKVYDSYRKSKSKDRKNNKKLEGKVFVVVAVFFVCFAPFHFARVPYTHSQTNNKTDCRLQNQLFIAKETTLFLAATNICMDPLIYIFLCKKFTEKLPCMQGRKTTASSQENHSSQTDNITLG
Protocol: Experiment was performed as in FIG. 2A with non-specific control siRNA (a, b, c) or with siRNA directed to human P2Y13 receptor (d, e, f, g) (n>7); (*) p<0.05 (unpaired t-test).
Internalization assays were performed as described in Guendouzi et al., (Biochemistry, 1998, 37: 14974-80) on HepG2 cells, obtained from the American Type Culture Collection ([…]). Cells were incubated for 10 minutes at 37° C. with 75 μg/ml of either ^125I-TG-HDL2, ^125I-HDL3 or ^125I-LDL. After washing and dissociation at 4° C. in phosphate buffered saline (PBS), cell radioactivity was determined using a Wallac 1261 multigamma apparatus.
The silencing of the different P2Y receptors were carried-out using the siRNA technique. The siRNA sequenced targeting human P2Y13 receptor (Gene Bank GB/EMBL/DDBJ accession number AF295368) was from position 406 or 359 relative to the start codon. The siRNA duplex (21-nt-RNAs) in deprotected and desalted form, the siRNA targeting human P2Y1 receptor (a mix of 4 siRNAs, M-005689), and the non-specific control siRNA (D-001206-01) were purchased from Dharmacon Inc. Subconfluent HepG2 cells were transiently transfected with siRNAs (final concentration, 100 nM) using Oligofectamine™ according to the manufacturer's protocole (Invitrogen). Cells were usually assayed 48 hours after transfection. Specific silencing effect was confirmed by at least three independent experiments.
Results are expressed as a percentage of internalization with respect to the control value (set at 0). Control corresponded to a basal value of internalization, amounting to 400 ng, 300 ng, 200 ng of TG-HDL2, HDL3 and LDL per mg of cells protein respectively for 10 minutes. Data as a mean ±SEM of at least 7, 5, 6 independent experiments, for TG-HDL2, HDL3 and LDL respectively.

Row | behaviour at P2Y13 receptor (modulation of ADP effect on cAMP) (human P2Y13 receptor [1]; AR-C69931MX 100 nM with increasing ADP) | SMILES | maximal inhibition (decrease) of forskolin-induced cAMP accumulation (human P2Y13 receptor [1]) | IC50 (human P2Y13 receptor [1]) | effect of P2Y13 receptor silencing on TG-HDL2 endocytosis after stimulation (human P2Y13 receptor [2])
1 |  | Nc1ncnc2c1ncn2[C@@H]1O[C@H](COP(=O)(O)OP(=O)(O)O)[C@@H](O)[C@H]1O [ADP, adenosine diphosphate, reference compound] | 70% | 0.6 ± 0.2 nM | dramatic inhibition
2 | partial agonist | CSCCNc1nc(SCCC(F)(F)F)nc2c1ncn2[C@@H]1O[C@H](COP(=O)(O)OP(=O)(O)C(Cl)(Cl)P(=O)(O)O)[C@@H](O)[C@H]1O [AR-C69931MX, N-[2-(methylthio)ethyl]-2-[(3,3,3-trifluoropropyl)thio]-5′-adenylic acid, monoanhydride with dichloromethylenebisphosphonic acid] | 25% | 0.5 ± 0.1 nM | dramatic inhibition
